Source: patent publication US20240059698A1 (Accutar Biotechnology Inc., priority 2022, published 2024)
Read-outs that look alike come from different tables or passages of the source.

Legend:
Format in all cases: cell-based
HCC827 cells = assay: Cell growth inhibition (CellTiter-Glo), HCC827; settings: Homo sapiens, 72 h, 3 days
How it was run: (§1)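 HCC827 cells in RPMI and A431 cells in DMEM (both 10% FBS) were seeded at 5000 cells/well and left overnight. They were then exposed to compound dilutions for 3 days at 37° C. Viability was read by CellTiter-Glo luminescence.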

[1] = tested on: HCC827-SVD cells (human EGFR exon 20 insertion mutant D770_N771insSVD); assay: Cell growth inhibition (CellTiter-Glo), HCC827-SVD; settings: 72 h, 3 days
How it was run: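 HCC827 cells with endogenous EGFR knocked out and lentivirally expressing the insertion mutant (single clone) were seeded at 5000 cells/well in RPMI with 10% FBS. After overnight, compounds added; 3 days at 37 °C, then CellTiter-Glo luminescence.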

[2] = tested on: HCC827-YVMA cells (human ERBB2 exon20 insertion mutant A775_G776ins YVMA); assay: Cell growth inhibition (CellTiter-Glo), HCC827-YVMA; settings: 72 h, read-out: Cell growth inhibition, GI50 (nM) HCC827-YVMA
How it was run: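 HCC827 cells transduced with lentiviral codon-optimized mutant (ERBB2 A775_G776insYVMA or EGFR V769_D770insASV), endogenous EGFR knocked out by CRISPR, single clone selected. Cells seeded overnight in RPMI/10% FBS, then exposed to serially diluted compounds at 37 °C for 3 days; viability read by CellTiter-Glo luminescence.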

A431 cells = assay: Cell growth inhibition (CellTiter-Glo), A431; settings: Homo sapiens, A-431, 72 h, 3 days
How it was run: as §1

[3] = tested on: HCC827-ASV cells (human EGFR exon 20 insertion mutant V769_D770insASV); assay: Cell growth inhibition (CellTiter-Glo), HCC827-ASV; settings: 72 h, read-out: Cell growth inhibition, GI50 (nM) HCC827-ASV
Protocol: Generation of HCC827-SVD, HCC827-ASV, and HCC827-YVMA cell lines. The HCC827-SVD cell line was generated by first transducing HCC827 cells (ATCC) with lentiviral particles expressing codon-optimized human EGFR exon 20 insertion mutant D770_N771insSVD, and then selecting under 5 µg/mL puromycin treatment for a week. The resulting cells were further transduced with lentiviral particles carrying EGFR sgRNA and CAS9 to knockout the endogenous alleles of EGER and then selected under 500 µg/mL hygromycin B treatment for two weeks. The limiting dilution approach was used to subsequently generate the single clone of the HCC827-SVD stable cell line. Endogenous EGFR knockout was confirmed by Sanger sequencing of cell genomic DNA, and expression of exogenous mutant EGFR was verified by Western blot analysis.
HCC827-ASV and HCC827-YVMA cell lines were generated in a similar approach as HCC827-SVD, except that HCC827 cells (ATCC) were first transduced with lentiviral particles expressing codon-optimized human EGFR exon 20 insertion mutant V769_D770insASV and human ERBB2 exon20 insertion mutant A775_G776ins YVMA, respectively.
2. Cell Growth Inhibition for HCC827, HCC827-SVD, HCC827-ASV, HCC827-YVMA, and A431.
HCC827(ATCC), HCC827-SVD, HCC827-ASV, and HCC827-YVMA cells were seeded in 96-well plates at 5000 cells/well in 90 μL of RPMI growth medium containing 10% FBS and 1% Penicillin Streptomycin. A431 (ATCC) cells were seeded in 96-well plates at 5000 cells/well in 90 μL of DMEM growth medium containing 10% FBS and 1% Penicillin Streptomycin. Cells were incubated at 37° C. overnight and then administered with 10 μL 10× test compounds prepared in the growth medium at various concentrations. After administration of the compounds, cells were incubated at 37° C. for 3 days. Before the CellTiter-Glo assay, the plates were equilibrated at room temperature for approximately 30 minutes. 100 ul of CellTiter-Glo reagent (Promega) was added to each well. The plates were then incubated at room temperature for 10 minutes and luminescence was recorded by the EnSight® multimode plate reader (PerkinElmer). Table 7 listed selected compounds in cellular growth assay.

[4] = HCC827-YVMA cells, 3 days, CellTiter-Glo
[5] = HCC827-ASV cells, 3 days, CellTiter-Glo

C=CC(=O)N1CCC(c2ccn3ncnc(Nc4ccc(Oc5ccnc(N6CC7C(C6)C7(F)F)c5)cc4F)c23)CC1 (stereo not drawn) [Compound 200, 1-(4-(4-((4-((2-(6,6-difluoro-3-azabicyclo[3.1.0]hexan-3-yl)pyridin-4-yl)oxy)-2-fluorophenyl)amino)pyrrolo[2,1-f][1,2,4]triazin-5-yl)piperidin-1-yl)prop-2-en-1-one]
GI50 (HCC827 cells): 200 to 1000 nM
GI50 [1]: 50 to 200 nM
GI50 [2, 4]: 50 to 200 nM
GI50 (A431 cells): > 1000 nM

C=CC(=O)N1CCC(c2ccn3ncnc(Nc4ccc(Oc5ccnc(N6CC(C)(OC)C6)c5)cc4F)c23)CC1 [Compound 203, 1-(4-(4-((2-fluoro-4-((2-(3-methoxy-3-methylazetidin-1-yl)pyridin-4-yl)oxy)phenyl)amino)pyrrolo[2,1-f][1,2,4]triazin-5-yl)piperidin-1-yl)prop-2-en-1-one]
GI50 (HCC827 cells): > 1000 nM
GI50 [1]: 200 to 1000 nM
GI50 [2, 4]: 50 to 200 nM
GI50 (A431 cells): > 1000 nM

C=CC(=O)N1CCC(c2ccn3ncnc(Nc4ccc(Oc5ccnc(N6CCC(C#N)C6)c5)cc4F)c23)CC1 (stereo not drawn) [Compound 204, 1-(4-(4-((5-(1-acryloylpiperidin-4-yl)pyrrolo[2,1-f][1,2,4]triazin-4-yl)amino)-3-fluorophenoxy)pyridin-2-yl)pyrrolidine-3-carbonitrile]
GI50 (HCC827 cells): > 1000 nM
GI50 [1]: 50 to 200 nM
GI50 [2, 4]: 50 to 200 nM
GI50 (A431 cells): > 1000 nM

C=CC(=O)N1CCC(c2ccn3ncnc(Nc4ccc(Oc5ccnc(N6CC7(CCOCC7)C6)c5)cc4F)c23)CC1 [Compound 205, 1-(4-(4-((4-((2-(7-oxa-2-azaspiro[3.5]nonan-2-yl)pyridin-4-yl)oxy)-2-fluorophenyl)amino)pyrrolo[2,1-f][1,2,4]triazin-5-yl)piperidin-1-yl)prop-2-en-1-one]
GI50 (HCC827 cells): > 1000 nM
GI50 [1]: 200 to 1000 nM
GI50 [2, 4]: 50 to 200 nM
GI50 (A431 cells): > 1000 nM

C=CC(=O)N1CCC(c2ccn3ncnc(Nc4ccc(Oc5nc(-c6cnc(C)c(F)c6)cs5)cc4F)c23)CC1 [Compound 206, 1-[4-[4-[2-fluoro-4-[4-(5-fluoro-6-methyl-3-pyridyl)thiazol-2-yl]oxy-anilino]pyrrolo[2,1-f][1,2,4]triazin-5-yl]-1-piperidyl]prop-2-en-1-one]
GI50 (HCC827 cells): > 1000 nM
GI50 [1]: 200 to 1000 nM
GI50 [2, 4]: 50 to 200 nM
GI50 (A431 cells): > 1000 nM

C=CC(=O)N1CCC(c2ccn3ncnc(Nc4ccc(Oc5nc(-c6ccnn6C)cs5)cc4F)c23)CC1 [Compound 207, 1-(4-(4-((2-fluoro-4-((4-(1-methyl-1H-pyrazol-5-yl)thiazol-2-yl)oxy)phenyl)amino)pyrrolo[2,1-f][1,2,4]triazin-5-yl)piperidin-1-yl)prop-2-en-1-one]
GI50 (HCC827 cells): > 1000 nM
GI50 [1]: 200 to 1000 nM
GI50 [2, 4]: 50 to 200 nM
GI50 (A431 cells): > 1000 nM

C=CC(=O)N1CCC(c2c[nH]c3ncnc(Nc4ccc(OCc5cscn5)c(Cl)c4F)c23)CC1 [Compound 216, 1-(4-(4-((3-chloro-2-fluoro-4-(thiazol-4-ylmethoxy)phenyl)amino)-7H-pyrrolo[2,3-d]pyrimidin-5-yl)piperidin-1-yl)prop-2-en-1-one]
GI50 [1]: < 50 nM
GI50 [3, 5]: < 50 nM
GI50 [2, 4]: < 50 nM

C=CC(=O)N1CCC(c2c[nH]c3ncnc(Nc4ccc(OCc5csc(C)n5)c(Cl)c4)c23)CC1 [Compound 217, 1-(4-(4-((3-chloro-4-((2-methylthiazol-4-yl)methoxy)phenyl)amino)-7H-pyrrolo[2,3-d]pyrimidin-5-yl)piperidin-1-yl)prop-2-en-1-one]
GI50 [1]: < 50 nM
GI50 [3, 5]: < 50 nM
GI50 [2, 4]: < 50 nM

C=CC(=O)N1CCC(c2c[nH]c3ncnc(Nc4ccc(O[C@H](C)c5cscn5)c(Cl)c4)c23)CC1 [Compound 218, (R)-1-(4-(4-((3-chloro-4-(1-(thiazol-4-yl)ethoxy)phenyl)amino)-7H-pyrrolo[2,3-d]pyrimidin-5-yl)piperidin-1-yl)prop-2-en-1-one]
GI50 [1]: < 50 nM
GI50 [3, 5]: < 50 nM
GI50 [2, 4]: < 50 nM

C=CC(=O)N1CCC(c2c[nH]c3ncnc(Nc4ccc(OCc5ncsc5C)c(Cl)c4)c23)CC1 [Compound 219, 1-(4-(4-((3-chloro-4-((5-methylthiazol-4-yl)methoxy)phenyl)amino)-7H-pyrrolo[2,3-d]pyrimidin-5-yl)piperidin-1-yl)prop-2-en-1-one]
GI50 [1]: < 50 nM
GI50 [3, 5]: < 50 nM
GI50 [2, 4]: < 50 nM

C=CC(=O)N1CCC(c2c[nH]c3ncnc(Nc4ccc(OCc5ccccn5)c(Br)c4F)c23)CC1 [Compound 220, 1-[4-[4-[3-bromo-2-fluoro-4-(2-pyridylmethoxy)anilino]-7H-pyrrolo[2,3-d]pyrimidin-5-yl]-1-piperidyl]prop-2-en-1-one]
GI50 [1]: < 50 nM
GI50 [3, 5]: < 50 nM
GI50 [2, 4]: < 50 nM

C=CC(=O)N1CCC(c2c[nH]c3ncnc(Nc4cc(Cl)c(OCc5ccccn5)cc4F)c23)CC1 [Compound 221, 1-(4-(4-((5-chloro-2-fluoro-4-(pyridin-2-ylmethoxy)phenyl)amino)-7H-pyrrolo[2,3-d]pyrimidin-5-yl)piperidin-1-yl)prop-2-en-1-one]
GI50 [1]: < 50 nM
GI50 [3, 5]: < 50 nM
GI50 [2, 4]: < 50 nM

C=CC(=O)N1CCC(c2c[nH]c3ncnc(Nc4cc(Cl)c(OCc5ccccn5)cc4Cl)c23)CC1 [Compound 222, 1-[4-[4-[2,5-dichloro-4-(2-pyridylmethoxy)anilino]-7H-pyrrolo[2,3-d]pyrimidin-5-yl]-1-piperidyl]prop-2-en-1-one]
GI50 [1]: < 50 nM
GI50 [3, 5]: < 50 nM
GI50 [2, 4]: < 50 nM

C=CC(=O)N1CCC(c2c[nH]c3ncnc(Nc4ccc(OCc5ncc(F)s5)c(Cl)c4)c23)CC1 [Compound 223, 1-[4-[4-[3-chloro-4-[(5-fluorothiazol-2-yl)methoxy]anilino]-7H-pyrrolo[2,3-d]pyrimidin-5-yl]-1-piperidyl]prop-2-en-1-one]
GI50 [1]: < 50 nM
GI50 [3, 5]: < 50 nM
GI50 [2, 4]: < 50 nM

C=CC(=O)N1CCC(c2c[nH]c3ncnc(Nc4ccc(OCc5cc6sccc6cn5)c(Cl)c4)c23)CC1 [Compound 224, 1-(4-(4-((3-chloro-4-(thieno[3,2-c]pyridin-6-ylmethoxy)phenyl)amino)-7H-pyrrolo[2,3-d]pyrimidin-5-yl)piperidin-1-yl)prop-2-en-1-one]
GI50 [1]: < 50 nM
GI50 [3]: < 50 nM
GI50 [2]: < 50 nM

C=CC(=O)N1CCC(c2c[nH]c3ncnc(Nc4ccc5c(cnn5Cc5cccc(F)c5)c4)c23)CC1 [Compound 226, 1-(4-(4-((1-(3-fluorobenzyl)-1H-indazol-5-yl)amino)-7H-pyrrolo[2,3-d]pyrimidin-5-yl)piperidin-1-yl)prop-2-en-1-one]
GI50 [1]: < 50 nM
GI50 [3, 5]: < 50 nM
GI50 [2, 4]: < 50 nM

[2H]C([2H])(Oc1ccc(Nc2ncnc3[nH]cc(C4CCN(C(=O)C=C)CC4)c23)cc1Cl)c1ccccn1 [Compound 227, 1-(4-(4-((3-chloro-4-(pyridin-2-ylmethoxy-d2)phenyl)amino)-7H-pyrrolo[2,3-d]pyrimidin-5-yl)piperidin-1-yl)prop-2-en-1-one]
GI50 [1]: < 50 nM
GI50 [3, 5]: < 50 nM
GI50 [2, 4]: < 50 nM

C=CC(=O)N1CCC(c2c[nH]c3ncnc(Nc4ccc(OCc5cccc(F)c5)c(Cl)c4)c23)CC1 [Compound 228, 1-(4-(4-((3-chloro-4-((3-fluorobenzyl)oxy)phenyl)amino)-7H-pyrrolo[2,3-d]pyrimidin-5-yl)piperidin-1-yl)prop-2-en-1-one]
GI50 [1]: < 50 nM
GI50 [3, 5]: < 50 nM
GI50 [2, 4]: < 50 nM
